Assay results: patent publication US20240174647A1 (NEURON23, INC., priority 2022, published 2024)

What follows are compounds tested against wt human LRRK2, catalytic site (Homo sapiens (Human), UniProt Q5S007) (assay: TR-FRET LanthaScreen Tb Kinase Activity Assay (LRRK2 kinase inhibition)). Settings: 2 nM wt human LRRK2, 400 nM fluorescein-ERM (LRRKtide) peptide, 38 μM ATP, 120 minutes at room temperature.
Chain of wt human LRRK2, catalytic site (Q5S007 1879-2138): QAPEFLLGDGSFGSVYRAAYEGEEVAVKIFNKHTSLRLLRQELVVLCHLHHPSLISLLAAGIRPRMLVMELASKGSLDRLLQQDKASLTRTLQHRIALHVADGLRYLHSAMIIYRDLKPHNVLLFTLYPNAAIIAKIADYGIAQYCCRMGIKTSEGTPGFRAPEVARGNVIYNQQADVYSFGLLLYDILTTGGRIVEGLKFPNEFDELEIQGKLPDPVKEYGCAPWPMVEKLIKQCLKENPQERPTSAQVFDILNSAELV
Format: biochemical
Outline: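 LanthaScreen TR-FRET with 2 nM wt human LRRK2 catalytic site, 400 nM fluorescein-ERM (LRRKtide) peptide and 38 µM ATP in Kinase Buffer A; 120 min at room temperature. Phosphorylation detected with EDTA and Tb-anti-pLRRKtide after 60 min; IC50 from emission ratios.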
In the case of `N#CCn1ncc2c(Nc3ncc(C(F)(F)F)c(NCC4CC4)n3)cccc21` [Example 104, 2-(4-((4-((cyclopropylmethyl)amino)-5-(trifluoromethyl)pyrimidin-2-yl)amino)-1H-indazol-1-yl)acetonitrile], the IC50 is reported as < 50 nM. For `CC1(Nc2nc(Nc3cccc4c3cnn4CC#N)ncc2C(F)(F)F)CC1` [Example 105, 2-(4-((4-((1-methylcyclopropyl)amino)-5-(trifluoromethyl)pyrimidin-2-yl)amino)-1H-indazol-1-yl)acetonitrile], the IC50 was < 50 nM. `N#CCn1ncc2c(Nc3ncc(C(F)(F)F)c(NCC(F)(F)F)n3)cccc21` [Example 106, 2-(4-((4-((2,2,2-trifluoroethyl)amino)-5-(trifluoromethyl)pyrimidin-2-yl)amino)-1-indazol-1-yl)acetonitrile] was tested, and the IC50 was < 50 nM. `CN(C)c1nc(Nc2cccc3c2cnn3CC#N)ncc1C(F)(F)F` [Example 107, 2-(4-((4-(dimethylamino)-5-(trifluoromethyl)pyrimidin-2-yl)amino)-1H-indazol-1-yl)acetonitrile] was tested, and the IC50 was < 50 nM. In the case of `CC(C)Nc1nc(Nc2cccc3c2cnn3C(C)(C)C#N)ncc1C(F)(F)F` [Example 108, 2-(4-((4-(isopropylamino)-5-(trifluoromethyl)pyrimidin-2-yl)amino)-1H-indazol-1-yl)-2-methylpropanenitrile], the IC50 is reported as < 50 nM. `CNc1nc(Nc2ccc(C3CCN(C)CC3)c3c2cnn3CC#N)ncc1C(F)(F)F` [Example 109, 2-(4-((4-(methylamino)-5-(trifluoromethyl)pyrimidin-2-yl)amino)-7-(1-methylpiperidin-4-yl)-1H-indazol-1-yl)acetonitrile] was tested, and the IC50 was < 50 nM. In the case of `CC(C)Nc1nc(Nc2cccc3c2cnn3CC#N)ncc1C(F)(F)F` [Example 110, 2-(4-((4-(isopropylamino)-5-(trifluoromethyl)pyrimidin-2-yl)amino)-1H-indazol-1-yl)acetonitrile], the IC50 is reported as ≥ 200 nM. In the case of `CNc1nc(Nc2ccc(Cl)c3c2cnn3CC#N)ncc1C(F)(F)F` [Example 111, 2-(7-chloro-4-((4-(methylamino)-5-(trifluoromethyl)pyrimidin-2-yl)amino)-1H-indazol-1-yl)acetonitrile], the IC50 is reported as < 50 nM. In the case of `CC(C)(C#N)n1ncc2c(Nc3ncc(C(F)(F)F)c(NCC(F)(F)F)n3)cccc21` [Example 112, 2-methyl-2-(4-((4-((2,2,2-trifluoroethyl)amino)-5-(trifluoromethyl)pyrimidin-2-yl)amino)-1H-indazol-1-yl)propanenitrile], the IC50 is reported as < 50 nM. In the case of `CC(C)(C#N)n1ncc2c(Nc3ncc(C(F)(F)F)c(NC4CCC4)n3)cccc21` [Example 113, 2-(4-((4-(cyclobutylamino)-5-(trifluoromethyl)pyrimidin-2-yl)amino)-1H-indazol-1-yl)-2-methylpropanenitrile], the IC50 is reported as < 50 nM. `CNc1nc(Nc2cc3[nH]ncc3cc2F)ncc1C(F)(F)F` [Example 114, N^2-(5-fluoro-1H-indazol-6-yl)-N^4-methyl-5-(trifluoromethyl)pyrimidine-2,4-diamine] was tested, and the IC50 was < 50 nM. With `CNc1nc(Nc2ccnc3ccnn23)ncc1C(F)(F)F` [Example 115, N^4-methyl-N^2-pyrazolo[1,5-a]pyrimidin-7-yl-5-(trifluoromethyl)pyrimidine-2,4-diamine] the IC50 was ≥ 200 nM. For `CNc1nc(Nc2cc3[nH]ncc3cc2Cl)ncc1C(F)(F)F` [Example 116], the IC50 was < 50 nM. In the case of `CNc1nc(Nc2ncn3ccccc23)ncc1C(F)(F)F` [Example 117, N^2-(imidazo[1,5-a]pyridin-1-yl)-N4-methyl-5-(trifluoromethyl)pyrimidine-2,4-diamine], the IC50 is reported as ≥ 200 nM. In the case of `CNc1nc(Nc2cnn3ccc(C#N)cc23)ncc1C(F)(F)F` [Example 118, 3-[[4-(methylamino)-5-(trifluoromethyl)pyrimidin-2-yl]amino]pyrazolo[1,5-a]pyridine-5-carbonitrile], the IC50 is reported as < 50 nM. In the case of `CNc1nc(Nc2cnn3cc(C#N)ccc23)ncc1C(F)(F)F` [Example 119, 3-((4-(methylamino)-5-(trifluoromethyl)pyrimidin-2-yl)amino)pyrazolo[1,5-a]pyridine-6-carbonitrile], the IC50 is reported as < 50 nM. With `C=Cc1cc2cn[nH]c2cc1Nc1ncc(C(F)(F)F)c(NC)n1` [Example 120, N^4-methyl-5-(trifluoromethyl)-N^2-(5-vinyl-1H-indazol-6-yl)pyrimidine-2,4-diamine] the IC50 was 50 to 200 nM. In the case of `CNc1nc(Nc2cccc3nccn23)ncc1C(F)(F)F` [Example 121, N^2-imidazo[1,2-a]pyridin-5-yl-N^4-methyl-5-(trifluoromethyl)pyrimidine-2,4-diamine], the IC50 is reported as ≥ 200 nM. Work on `CCc1cc2cn[nH]c2cc1Nc1ncc(C(F)(F)F)c(NC)n1` [Example 122, N2-(5-ethyl-1H-indazol-6-yl)-N4-methyl-5-(trifluoromethyl)pyrimidine-2,4-diamine] yielded an IC50 of 50 to 200 nM. With `CNc1nc(Nc2cc3[nH]ncc3cc2C(F)(F)F)ncc1C(F)(F)F` [Example 123, N^4-methyl-5-(trifluoromethyl)-N^2-[5-(trifluoromethyl)-1H-indazol-6-yl]pyrimidine-2,4-diamine] the IC50 was ≥ 200 nM. With `CNc1nc(Nc2cccc3nncn23)ncc1C(F)(F)F` [Example 124, N^4-methyl-N^2-([1,2,4]triazolo[4,3-a]pyridin-5-yl)-5-(trifluoromethyl) pyrimidine-2,4-diamine] the IC50 was ≥ 200 nM. `CNc1nc(Nc2cn(C)c3ncncc23)ncc1C(F)(F)F` [Example 125, 4-methyl-N2(7-methylpyrrolo[2,3-d]pyrimidin-5-yl)-5-(trifluoromethyl) pyrimidine-2,4-diamine] was tested, and the IC50 was < 50 nM. `CNc1nc(Nc2ccc3cnccn23)ncc1C(F)(F)F` [Example 126, N^4-methyl-N^2-pyrrolo[1,2-a]pyrazin-6-yl-5-(trifluoromethyl)pyrimidine-2,4-diamine] was tested, and the IC50 was ≥ 200 nM. In the case of `CNc1nc(Nc2cccc3c2CC(=O)N3)ncc1C(F)(F)F` [Example 127, 4-[[4-(methylamino)-5-(trifluoromethyl)pyrimidin-2-yl]amino]indolin-2-one], the IC50 is reported as < 50 nM. Compound `CNc1cc(Nc2nn(C)c3ncncc23)ncc1C(F)(F)F` [Example 128, N^4-methyl-N^2-(1-methyl-1H-pyrazolo[3,4-d]pyrimidin-3-yl)-5-(trifluoromethyl)pyridine-2,4-diamine] has an IC50 of 50 to 200 nM. For `CNc1nc(Nc2cc3[nH]ncc3cc2OC(F)(F)F)ncc1C(F)(F)F` [Example 129, N4-methyl-N2-[5-(trifluoromethoxy)-1H-indazol-6-yl]-5-(trifluoromethyl) pyrimidine-2,4-diamine], the IC50 was < 50 nM. With `CNc1nc(Nc2cccn3cncc23)ncc1C(F)(F)F` [Example 130, N^2-(imidazo[1,5-a]pyridin-8-yl)-N^4-methyl-5-(trifluoromethyl)pyrimidine-2,4-diamine] the IC50 was < 50 nM. `CNc1nc(Nc2cn(CC#N)c3cnccc23)ncc1C(F)(F)F` [Example 131, 2-[3-[[4-(methylamino)-5-(trifluoromethyl)pyrimidin-2-yl]amino]pyrrolo[2,3-c]pyridin-1-yl]acetonitrile] was tested, and the IC50 was < 50 nM. Work on `O=S(=O)(C1CC1)n1ncc2c(Nc3ncc(C(F)(F)F)c(C4CC4)n3)cccc21` [Example 132, N-(4-cyclopropyl-5-(trifluoromethyl)pyrimidin-2-yl)-1-(cyclopropylsulfonyl)-1H-indazol-4-amine] yielded an IC50 of 50 to 200 nM. In the case of `COCCn1ncc2c(Nc3ncc(C(F)(F)F)c(NC4CC4)n3)cccc21` [Example 133, N^4-cyclopropyl-N^2-[1-(2-methoxyethyl)indazol-4-yl]-5-(trifluoromethyl) pyrimidine-2,4-diamine], the IC50 is reported as < 50 nM. `FC(F)Cn1ncc2c(Nc3ncc(C(F)(F)F)c(NC4CC4)n3)cccc21` [Example 134, N^4-cyclopropyl-N2-[1-(2,2-difluoroethyl)indazol-4-yl]-5-(trifluoromethyl) pyrimidine-2,4-diamine] was tested, and the IC50 was < 50 nM. With `CC(C)S(=O)(=O)n1ncc2c(Nc3ncc(C(F)(F)F)c(NC4CC4)n3)cccc21` [Example 135, N^4-cyclopropyl-N^2-(1-isopropylsulfonylindazol-4-yl)-5-(trifluoromethyl) pyrimidine-2,4-diamine] the IC50 was < 50 nM. With `COCCS(=O)(=O)n1ncc2c(Nc3ncc(C(F)(F)F)c(NC4CC4)n3)cccc21` [Example 136, N^4-cyclopropyl-N^2-(1-((2-methoxyethyl)sulfonyl)-1H-indazol-4-yl)-5-(trifluoromethyl)pyrimidine-2,4-diamine] the IC50 was < 50 nM. With `O=S(=O)(C1CC1)n1ncc2c(Nc3ncc(C(F)(F)F)c(NCCF)n3)cccc21` [Example 137, N^2-(1-(cyclopropylsulfonyl)-1H-indazol-4-yl)-N^4-(2-fluoroethyl)-5-(trifluoromethyl) pyrimidine-2,4-diamine] the IC50 was < 50 nM. With `CS(=O)(=O)CCNc1nc(Nc2cccc3c2cnn3S(=O)(=O)C2CC2)ncc1C(F)(F)F` [Example 138, N^2-(1-(cyclopropylsulfonyl)-1H-indazol-4-yl)-N^4-(2-(methylsulfonyl)ethyl)-5-(trifluoromethyl)pyrimidine-2,4-diamine] the IC50 was < 50 nM. With `CS(=O)(=O)CCn1ncc2c(Nc3ncc(C(F)(F)F)c(NC4CC4)n3)cccc21` [Example 139, N^4-cyclopropyl-N^2-(1-(2-(methylsulfonyl)ethyl)-1H-indazol-4-yl)-5-(trifluoromethyl)pyrimidine-2,4-diamine] the IC50 was < 50 nM. With `COCCn1ncc2c(Nc3ncc(C(F)(F)F)c(NC(C)C)n3)cccc21` [Example 140, N^4-isopropyl-N^2-[1-(2-methoxyethyl)indazol-4-yl]-5-(trifluoromethyl)pyrimidine-2,4-diamine] the IC50 was < 50 nM. For `OCCNc1nc(Nc2cccc3c2cnn3CC(F)F)ncc1C(F)(F)F` [Example 141, 2-[[2-[[1-(2,2-difluoroethyl)indazol-4-yl]amino]-5-(trifluoromethyl)pyrimidin-4-yl]amino]ethanol], the IC50 was < 50 nM.
